{
  "source": "paper PMC12567082",
  "about": "“Silver(I) Complexes Bearing S-Alkyl Thiosalicylic Acid Derivatives: DNA/BSA Binding and Antitumor Activity In Vitro and In Vivo” (Pharmaceutics, 2025)",
  "key": {"CT-DNA [1]": {"test_system": "CT-DNA", "assay": "UV-Vis absorption titration with CT-DNA", "format": "binding, calf", "settings": "ΔG = −RT lnKb", "method": "All DNA-binding studies were conducted in 0.01 M phosphate-buffered saline (PBS, pH 7.40) at 25 °C. […] To eliminate absorbance from CT-DNA, identical amounts of DNA were added to both the test and reference solutions prior to spectral recording.\nIntrinsic binding constants (Kb) were calculated using the equation to determine the DNA-binding affinities of the complexes (1):[DNA]/(εa − εf) = [DNA]/(εb − εf) + 1 [Kb(εb − εf)](1)\n[DNA] represents the concentration of DNA; apparent extinction coefficient, εa, was calculated as the ratio of the observed absorbance to the concentration of the complex (Aobs/[complex]); and εb and εf correspond to the extinction coefficients of the complex in the fully bound and free forms, respectively. Kb was determined from the ratio of the slope to the intercept obtained from the corresponding linear plots."}, "CT-DNA [2]": {"test_system": "CT-DNA", "assay": "Viscosity measurements of DNA solution", "design": "species or system calf", "settings": "up to r = 1.0, 8 µM DNA", "method": "Viscosity measurements were performed to evaluate the interaction of C2 and C4 with DNA. The flow time was measured with a digital stopwatch. For each concentration, six replicate measurements were taken, and the average flow time was used for analysis. The data were presented as (η/η0)^1/3 against r, where η is the viscosity of DNA in the presence of complex, and η0 is the viscosity of DNA alone in the buffered solution. The viscosity value was calculated from the observed flow time of DNA-containing solution (t) corrected for the flow time of buffer alone (t0), η = (t − t0)/t0."}, "mouse lung cancer (LLC1)": {"test_system": "mouse lung cancer (LLC1)", "assay": "MTT assay LLC1", "format": "cell-based", "method": "(§1) Mouse breast cancer (4T1), human breast cancer (MDA-MB-468), mouse colon cancer (CT26), human colon cancer (HCT-116), mouse lung cancer (LLC1), human lung cancer (A549), mouse mesenchymal stem cells (mMSC), and human fibroblast cell lines (MRC-5) were used in this study and were consistently cultured in complete Dulbecco’s Modified Eagle Medium (DMEM) (Sigma-Aldrich, St. Louis, MO, USA) in incubator (5% CO2) under standard conditions. Complete DMEM was Dulbecco’s Modified Eagle Medium supplemented with 10% fetal bovine serum (FBS), 1 mmol/L penicillin–streptomycin, 1 mmol/L mixed nonessential amino acids, and 2 mmol/L L-glutamine (Sigma-Aldrich, St. Louis, MO, USA). All cancer cell lines and MRC-5 cell line were obtained from American Type Culture Collection (ATCC, Manassas, VA, USA), but mMSC was manufactured by Gibco (Middlesex County, MA, USA).\n(§2) In 96-well microplates, we seeded cancer and non-cancer cells, more exactly 5 × 10^3 cells per well in 100 μL of complete DMEM (Sigma-Aldrich, St. Louis, MO, USA). […] Tested concentration range for all metal-based substances was 3.9–500 μM. After incubation with MTT solution (5 mg/mL; pH 7.2) for 4 h, optical density was determined using Zenyth 3100 microplate multimode detector (Salzburg, Austria). All experiments were performed three times, each in triplicate, and the IC50 values as well as selectivity indexes (IC50 for mMSC or MRC-5/IC50 for mouse or human cancer cells) were calculated."}, "[3]": {"test_system": "human fibroblast cell lines (MRC-5)", "assay": "MTT assay MRC-5", "format": "cell-based", "method": "as §1, §2"}, "HCT116 cells": {"test_system": "HCT116 cells", "assay": "Annexin V/PI apoptosis in HCT116", "format": "cell-based, human", "settings": "0.5 μM for 24 h", "method": "(§3) The following supporting information can be downloaded at https://www.mdpi.com/article/10.3390/pharmaceutics17101340/s1. NMR and FTIR spectra of free ligands and complexes. Figure S1. […] Inset: Plot of [DNA]/(εA − εf) vs. [DNA]. Figure S2. Relative viscosity (η/η0) ^1/3 of CT-DNA (8 µM) in PBS buffer solution with the addition of increasing amounts (r) of C2 and C4 complexes. Figure S3. […] [EB] = 8.52 × 10^−5 M; [DNA] = 8.52 × 10^−5 M; [complex] = (0–6.82) × 10^−5; λex = 527 nm. Arrows show the intensity changes upon increasing the concentration of the complex. Inset graph: Plot of I0/I vs. [Q]. Figure S4. […] [BSA] = 2 μM; [complex] = 0–8 μM; λex = 295 nm. Arrows show the intensity changes upon increasing the concentration of the complex. Inset graph: Plot of I0/I vs. [Q]. Figure S5. […] Figure S6. Dose-dependent cytotoxicity of silver(I) complexes with S-alkyl derivatives of thiosalicylic acid. […] All data are presented as mean values ± SD from three independent experiments performed in triplicate. Figure S7. Dose-dependent cytotoxicity of S-alkyl derivatives of thiosalicylic acid. […] All data are presented as mean values ± SD from three independent experiments performed in triplicate. Figure S8. […] Apoptotic rates of C2-treated (0.5 μM for 24 h) as well as untreated CT26 and HCT116 cells were determined by flow cytometry using Annexin V (FITC) and PI double staining. […]"}, "[4]": {"test_system": "human breast cancer (MDA-MB-468)", "assay": "MTT assay MDA-MB-468", "format": "cell-based", "method": "as §1, §2"}, "[5]": {"test_system": "mouse mesenchymal stem cells (mMSC)", "assay": "MTT assay mMSC", "format": "cell-based", "method": "as §1, §2"}, "human lung cancer (A549)": {"test_system": "human lung cancer (A549)", "assay": "MTT assay A549", "format": "cell-based", "method": "as §1, §2"}, "CT-DNA [6]": {"test_system": "CT-DNA", "assay": "EB–CT-DNA fluorescence quenching", "format": "binding, calf", "settings": "EB–CT-DNA 8.52 × 10^−5 M, PBS pH 7.4", "method": "All samples were prepared in phosphate-buffered saline (PBS, pH 7.4). Stern–Volmer Equation (2) was used to interpret the fluorescence quenching data."}, "[7]": {"test_system": "Mouse breast cancer (4T1)", "assay": "MTT assay 4T1", "format": "cell-based", "settings": "4T1, 48 h", "method": "as §1, §2"}, "BSA": {"biological_target": "T1, BSA (Bos taurus, UniProt P02769)", "T1 construct": "purchased Sigma-Aldrich", "T1 sequence (P02769 25-607)": "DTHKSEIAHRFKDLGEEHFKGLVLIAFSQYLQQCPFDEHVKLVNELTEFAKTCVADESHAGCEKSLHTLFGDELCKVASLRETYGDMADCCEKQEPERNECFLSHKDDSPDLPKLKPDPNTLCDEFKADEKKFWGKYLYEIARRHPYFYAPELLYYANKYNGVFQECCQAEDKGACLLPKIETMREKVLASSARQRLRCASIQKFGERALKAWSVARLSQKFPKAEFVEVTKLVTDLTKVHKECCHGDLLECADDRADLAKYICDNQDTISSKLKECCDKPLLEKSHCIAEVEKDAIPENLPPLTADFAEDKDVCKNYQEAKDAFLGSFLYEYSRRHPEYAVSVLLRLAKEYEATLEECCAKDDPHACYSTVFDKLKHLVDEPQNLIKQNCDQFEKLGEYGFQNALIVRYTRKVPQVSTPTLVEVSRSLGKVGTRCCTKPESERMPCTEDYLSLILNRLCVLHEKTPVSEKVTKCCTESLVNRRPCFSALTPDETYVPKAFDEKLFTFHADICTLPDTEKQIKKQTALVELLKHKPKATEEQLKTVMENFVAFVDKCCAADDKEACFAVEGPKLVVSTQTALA", "assay": "BSA tryptophan fluorescence quenching", "format": "binding, bovine", "method": "The protein binding study was carried out using tryptophan fluorescence quenching experiments with BSA. […] Fluorescence emission spectra were recorded between 300 and 500 nm, with excitation at 295 nm.\nThe quenching constant Ksv was determined based on the Stern–Volmer relationship, as described by Equation (3):I0/I = 1 + kqτ0[Q] = 1 + Ksv[Q](3)\nIn this equation, I0 and I refer to the fluorescence intensities of BSA measured without and with the quencher (complex), τ0 represents the average fluorescence lifetime of free BSA (∼10^−8 s), and [Q] indicates the quencher concentration.\nParameters such as association binding constant (K) and the number of binding sites per albumin (n) were obtained from Scatchard Equation (4):(ΔI/I0)/[Q] = nK − KΔI/I0(4)\nTo minimize inner filter, both intensities of fluorescence originating from excitation and emission light absorption and re-absorption were corrected by employing Equation (5); Icor and Iobs are the corrected and observed fluorescence intensities, respectively, and Aex and Aem represent the absorbance of the metal complex at the excitation and emission wavelengths, respectively.Icor = Iobs · […]^(Aex + Aem)/2(5)"}, "CT26 cells": {"test_system": "CT26 cells", "assay": "Annexin V/PI apoptosis in CT26", "format": "cell-based, mouse", "settings": "0.5 μM for 24 h", "method": "as §3"}},
  "data": [
    {"smiles": "CCSc1ccccc1C(=O)[O][Ag].CCSc1ccccc1C(=O)[O][Ag]", "note": "[C2, [Ag2(S-ethyl-thiosal)2]]", "values": [
      {"measurement": "ΔG (Gibbs free energy)", "setting": "CT-DNA [1]", "result": -6.76, "unit": "kcal/mol"},
      {"measurement": "viscosity of CT-DNA", "setting": "CT-DNA [2]", "result": "modest rise in the viscosity"},
      {"measurement": "IC50", "setting": "mouse lung cancer (LLC1); LLC1, 24 h", "result": "18.2 ± 0.93", "unit": "µM"},
      {"measurement": "Selectivity Index (IC50 mMSC or MRC-5/ IC50 Cancer Cell)", "setting": "mouse lung cancer (LLC1); LLC1, 24 h", "result": 0.24},
      {"measurement": "IC50", "setting": "mouse lung cancer (LLC1); LLC1, 48 h", "result": "20.2 ± 0.79", "unit": "µM"},
      {"measurement": "Selectivity Index (IC50 mMSC or MRC-5/ IC50 Cancer Cell)", "setting": "mouse lung cancer (LLC1); LLC1, 48 h", "result": 0.22},
      {"measurement": "IC50", "setting": "[3]; MRC-5, 24 h", "result": "38 ± 1.91", "unit": "µM"},
      {"measurement": "IC50", "setting": "[3]; MRC-5, 48 h", "result": "43.2 ± 1.23", "unit": "µM"},
      {"measurement": "apoptosis of HCT116 cells", "setting": "HCT116 cells", "result": "underwent apoptosis"},
      {"measurement": "IC50", "setting": "[4]; MDA-MB-468, 24 h", "result": "8.67 ± 1.13", "unit": "µM"},
      {"measurement": "Selectivity Index (IC50 mMSC or MRC-5/ IC50 Cancer Cell)", "setting": "[4]; MDA-MB-468, 24 h", "result": 4.39},
      {"measurement": "IC50", "setting": "[4]; MDA-MB-468, 48 h", "result": "5.43 ± 0.34", "unit": "µM"},
      {"measurement": "Selectivity Index (IC50 mMSC or MRC-5/ IC50 Cancer Cell)", "setting": "[4]; MDA-MB-468, 48 h", "result": 7.95},
      {"measurement": "IC50", "setting": "[5]; 24 h", "result": "4.29 ± 0.92", "unit": "µM"},
      {"measurement": "IC50", "setting": "[5]; 48 h", "result": "4.52 ± 0.48", "unit": "µM"},
      {"measurement": "IC50", "setting": "human lung cancer (A549); A549, 24 h", "result": "37.8 ± 1.01", "unit": "µM"},
      {"measurement": "Selectivity Index (IC50 mMSC or MRC-5/ IC50 Cancer Cell)", "setting": "human lung cancer (A549); A549, 24 h", "result": 1.01},
      {"measurement": "IC50", "setting": "human lung cancer (A549); A549, 48 h", "result": "50.2 ± 1.07", "unit": "µM"},
      {"measurement": "Selectivity Index (IC50 mMSC or MRC-5/ IC50 Cancer Cell)", "setting": "human lung cancer (A549); A549, 48 h", "result": 0.86},
      {"measurement": "Ksv EB (Stern–Volmer constant)", "setting": "CT-DNA [6]", "result": "(1.1 ± 0.1) × 10^4 M^−1"},
      {"measurement": "IC50", "setting": "[7]", "result": "4.84 ± 0.92", "unit": "µM"},
      {"measurement": "Selectivity Index (IC50 mMSC or MRC-5/ IC50 Cancer Cell)", "setting": "[7]", "result": 0.93},
      {"measurement": "kq (quenching rate constant)", "setting": "BSA; BSA 2 µM", "result": "(1.4 ± 0.1) × 10^13 M^−1 s^−1"},
      {"measurement": "Ksv (Stern–Volmer constant)", "setting": "BSA; BSA 2 µM, λex 295 nm", "result": "(1.4 ± 0.1) × 10^5 M^−1"},
      {"measurement": "K (binding constant)", "setting": "BSA; Scatchard equation", "result": "(1.3 ± 0.1) × 10^5 M^−1"},
      {"measurement": "n (number of binding sites)", "setting": "BSA; Scatchard equation", "result": 1.1},
      {"measurement": "apoptosis of CT26 cells", "setting": "CT26 cells", "result": "underwent apoptosis"}
    ]}
  ]
}
